Experiments:
HepG2 [1] = assay: Antiproliferative activity against human HepG2 cells after 48 hrs by MTT assay; assay type: functional, cell-based; details: HepG2, 48 h
HepG2 [2] = assay: Antiproliferative activity against human HepG2 cells assessed as cell growth inhibition at 100 nM after 48 hrs by MTT assay relative to swinholide-A; assay type: functional

Row | SMILES | IC50 (HepG2 [1]) [nM] | Efficacy (HepG2 [2]) [%]
1 | CO[C@H]1C[C@H](CC[C@H](C)[C@H](O)[C@H](C)[C@@H](O)[C@@H](C)[C@H]2C[C@H](O)[C@H](C)[C@@H](OC)C[C@@H]3CC=C[C@@H](C[C@@H](O)C/C=C(C)/C=C/C(=O)O[C@H]([C@@H](C)[C@@H](O)[C@@H](C)CC[C@H]4C[C@H](OC)C[C@H](C)O4)[C@@H](C)[C@H](O)C[C@H](O)[C@H](C)[C@@H](OC)C[C@@H]4CC=C[C@@H](C[C@@H](O)C/C=C(C)/C=C/C(=O)O2)O4)O3)O[C@@H](C)C1 | 1500 | 7.52
2 | CO[C@H]1C[C@H](CC[C@H](C)[C@H](O)[C@H](C)[C@H]2OC(=O)/C=C/C(C)=C/C[C@H](O)C[C@@H]3CCC[C@H](C[C@H](OC)[C@@H](C)[C@@H](O)C[C@@H](O)[C@H](C)[C@H](O)[C@@H](C)[C@H]([C@@H](C)CC[C@H]4C[C@H](OC)C[C@H](C)O4)OC(=O)/C=C/C(C)=C/C[C@H](O)C[C@@H]4C=CC[C@H](C[C@H](OC)[C@@H](C)[C@@H](O)C[C@@H](O)[C@@H]2C)O4)O3)O[C@@H](C)C1 [ISOSWINHOLIDE A] | 35 | 16.28
3 | CO[C@H]1C[C@H](CC[C@H](C)[C@H](O)[C@H](C)[C@H]2OC(=O)/C=C/C(C)=C/C[C@H](O)C[C@@H]3C=CC[C@@H](C[C@H](OC)[C@@H](C)[C@@H](O)C[C@@H](O)[C@H](C)[C@@H]([C@@H](C)[C@@H](O)[C@@H](C)CC[C@H]4C[C@H](OC)C[C@H](C)O4)OC(=O)/C=C/C(C)=C/C[C@H](O)C[C@@H]4C=CC[C@@H](C[C@H](OC)[C@@H](C)[C@@H](O)C[C@@H](O)[C@@H]2C)O4)O3)O[C@@H](C)C1 [Swinholide A] | 20 | –

Further molecules by falling IC50 (HepG2 [1]), results first:

Row | IC50 (HepG2 [1]) [nM] | SMILES | Efficacy (HepG2 [2]) [%]
4 | 30 | CO[C@H]1C[C@H](CC[C@H](C)[C@H](O)[C@H](C)[C@H]2OC(=O)/C=C/C(C)=C/C[C@H](O)C[C@@H]3C=CC[C@@H](C[C@H](OC)[C@@H](C)[C@@H](O)C[C@@H](O)[C@H](C)[C@@H]([C@@H](C)[C@@H](O)[C@@H](C)CC[C@H]4C[C@H](OC)C[C@H](C)O4)OC(=O)/C=C/C(C)=C/C[C@H](O)C[C@@H]4C=CC[C@@H](C[C@H](O)[C@@H](C)[C@@H](O)C[C@@H](O)[C@@H]2C)O4)O3)O[C@@H](C)C1 | 45.35
5 | 25 | CO[C@@H]1C[C@@H](O)C[C@@H](O)[C@H](C)[C@@H]([C@@H](C)[C@@H](O)[C@@H](C)CC[C@H]2C[C@H](OC)C[C@H](C)O2)OC(=O)/C=C/C(C)=C/C[C@H](O)C[C@@H]2C=CC[C@H](C[C@H](OC)[C@@H](C)[C@@H](O)C[C@@H](O)[C@H](C)[C@@H]([C@@H](C)[C@@H](O)[C@@H](C)CC[C@H]3C[C@H](OC)C[C@H](C)O3)OC(=O)/C=C/C(C)=C/C[C@H](O)C[C@@H]3CCC[C@H](C1)O3)O2 [SWINHOLIDE B] | 89.38
6 | 15 | C=C1/C=C/C(=O)O[C@H]([C@@H](C)[C@@H](O)[C@@H](C)CC[C@H]2C[C@H](OC)C[C@H](C)O2)[C@@H](C)[C@H](O)C[C@H](O)[C@H](C)[C@@H](OC)C[C@@H]2CC=C[C@@H](C[C@@H](O)C/C=C(C)/C=C/C(=O)O[C@H]([C@@H](C)[C@@H](O)[C@@H](C)CC[C@H]3C[C@H](OC)C[C@H](C)O3)[C@@H](C)[C@H](O)C[C@H](O)[C@H](C)[C@@H](OC)C[C@@H]3CC=C[C@@H](C[C@@H](O)C[C@H]1O)O3)O2 | 42.67
